Assay results: patent US4537614A, “S-aryl and S-aliphatic diamidophosphorothiolates as urease inhibitors and urease inhibited urea based fertilizer compositions” (Allied Corporation, priority 1984, dated 1985)

Experiments:
[1] = system: urease; assay: Urease Inhibiting Efficacy Test in New York soil (Cazenovia silt loam, pH 7.2); type: biochemical; conditions: 25° C., 3 days, remaining urea
Experimental: (§1) Representative compounds were tested to evaluate their efficacy in the inhibition of urease as compared to structurally similar compounds. The inhibition tests were run in a New York soil (Cazenovia silt loam, pH 7.2) and a Wisconsin soil (Plano silt loam, pH 5.4). […] The bottle was capped with perforated aluminum foil and incubated at 25° C. for 3 days prior to extraction with 100 mL of a 2M potassium chloride solution containing 0.5 mg of phenylmercuric acetate. The extracts were then analyzed for remaining urea using an autoanalyzer. Percent inhibition was calculated as
(§2) % Inhibition=[1-(A-B/A-C)]×100%
(§3) where A is urea recovered from unincubated sample (urea added to soil and immediately extracted); B is urea recovered from inhibited sample; and C is urea recovered from the control (uninhibited sample).

[2] = system: urease; assay: Efficacy as urease inhibitor, general statement (long term residual activity); conditions: primarily because of relatively long term residual activity
[3] = system: urease; assay: Urease Inhibiting Efficacy Test in Wisconsin soil (Plano silt loam, pH 5.4); type: biochemical; conditions: 25° C., 3 days, remaining urea
Experimental: as §1, §2, §3

[4] = 800 micrograms test compound + 42.8 mg urea per 20 g air dry soil
[5] = 200 micrograms test compound (footnote *) + 42.8 mg urea per 20 g air dry soil

## COP(N)(N)=O [Comp. Ex. 1, reference compound]
[1]; [4]
  % Inhibition Cazenovia Soil: 34%

## CCCOP(N)(N)=O [Comp. Ex. 2, reference compound]
[1]; [4]
  % Inhibition Cazenovia Soil: 15%

## CCCCSP(N)(N)=O [Experiment 2, S-(n-Butyl) Diamidophosphorothiolate]
[2]
  efficacy among the especially efficacious compounds: most efficacious
[1]; [5]
  % Inhibition Cazenovia Soil: 74%
[3]; [5]
  % Inhibition Wisconsin Soil: 82%

## CCC(C)SP(N)(N)=O (stereo not drawn) [Experiment 3, S-(2-Butyl) Diamidophosphorothiolate]
[1]; [5]
  % Inhibition Cazenovia Soil: 74%
[3]; [5]
  % Inhibition Wisconsin Soil: 84%

## CC(C)CSP(N)(N)=O [Experiment 4, S-(iso-Butyl) Diamidophosphorothiolate]
[2]
  efficacy among the especially efficacious compounds: most efficacious
[1]; [5]
  % Inhibition Cazenovia Soil: 80%
[3]; [5]
  % Inhibition Wisconsin Soil: 83%

## CCCCCCSP(N)(N)=O [Experiment 5, S-(n-Hexyl) Diamidophosphorothiolate]
[2]
  efficacy among the especially efficacious compounds: most efficacious
[1]; [5]
  % Inhibition Cazenovia Soil: 52%
[3]; [5]
  % Inhibition Wisconsin Soil: 66%

## NP(N)(=O)SC1CCCCC1 [Experiment 6, S-(Cyclohexyl) Diamidophosphorothiolate]
[1]; [5]
  % Inhibition Cazenovia Soil: 66%
[3]; [5]
  % Inhibition Wisconsin Soil: 58%

## CSP(N)(N)=O [S-Methyl Diamidophosphorothiolate]
[1]; [4]
  % Inhibition Cazenovia Soil: 93%
[3]; [4]
  % Inhibition Wisconsin Soil: 93%
